Drawing on a melting point compilation (Tetko et al.; mined from patent text by program, amines drawn as free bases though some values may be those of a salt), this text covers melting point for 34 molecules.

The term melting point denotes the temperature of the solid-liquid transition.

`Cc1cc(Cn2cncc2C)cc2c1Cc1c(-c3ccsc3)n[nH]c1-2` gave a melting point of 260 to 264 °C.
The same measure for `CCOc1c(N)c2c(c(OCC)c1OCC)C(C1c3cc(OC)c(OC)cc3CCN1C)OC2=O` (centres undefined): 143 °C; for `COC(=O)C(=NOCF)c1ccccc1COc1ccccc1C`: 101 to 102 °C; for `CCN(CCO)CCCC1CCN(S(=O)(=O)c2ccc(C(F)(F)F)cc2)CC1`: 71.3 to 72.7 °C.
On to `COC1(OCCc2nc(C(C)C)c(Sc3cc(Cl)cc(Cl)c3)n2C)c2ccccc2-c2ccccc21`, for which the melting point lay in the range of 130 to 131 °C.
The result for `COc1ccc2[nH]c(C)c(SC)c2c1` reads 55 to 56.5 °C.
As to `OCC(O)CSSc1nc2ccccc2s1` (centres undefined), the melting point is 115 to 120 °C.
Turning to `O=C(Nc1cccc(S(=O)(=O)NCc2ccccc2)c1)c1cnn2c(C(F)(F)F)cc(-c3ccc(C(F)(F)F)cc3)nc12`, the melting point was determined as 227 °C.
For the molecule `Cc1cc(Oc2ccc(S(C)(=O)=O)nc2)ccc1[N+](=O)[O-]`, the melting point fell in the range of 138 to 140 °C.
Take `COC(=O)c1ccc(CCCNCC(O)c2cccc(Cl)c2)cc1` (centres undefined): the melting point lay within 89 to 92 °C.
In turn, `O=c1c2cc(Br)ccc2nc(CSc2ncnc3[nH]cnc23)n1-c1ccccc1Cl` showed a melting point of 212 to 242 °C.
Molecule `Cc1ccccc1OC1CCN(CCc2c[nH]c3ccccc23)CC1` registered a melting point of 88 to 90 °C.
As to `O=Cc1ccn2c1CCC2`, the melting point was determined as 58 °C.
Regarding `CCc1ccc(C(=O)c2c(N)sc3c2CCN(C(=O)OCc2ccccc2)C3)cc1`, the melting point was in the range of 121 to 123 °C.
With `OCC1OC(n2cc(COc3ccc(C4=NC(=Nc5[nH]c(-c6ccc(O)cc6)cc5-c5ccccc5)C(c5ccccc5)=C4)cc3)nn2)C(O)C(O)C1O` (centres undefined), the melting point was in the range of 180 to 182 °C.
`Cc1c(C(=O)Nc2ccc(N3CCN(CCO)CC3)c(C#N)c2)cnn1-c1cccc(Cl)c1` registered a melting point of 176 to 177 °C.
In the case of `CCc1c(C(F)(F)F)nn(-c2ccc(S(N)(=O)=O)nc2)c1-c1ccc(-c2cncs2)c(F)c1`, the melting point fell in the range of 189 to 191 °C.
With `CN(C)c1ccc(-c2nnc(S)nc2-c2ccc(N(C)C)cc2)cc1`, the melting point was in the range of 276 to 279 °C.
For the molecule `CC(C)(C)c1ccc(C2CCSC(c3c(F)cccc3F)=N2)cc1` (centres undefined), the melting point was 91 to 91.5 °C.
The same measure for `CC(CN1CCN(c2ccc(F)cc2)CC1)CN1c2cccc3cccc(c23)S1(=O)=O` (centres undefined): 133 °C; for `CC(=O)N1CCc2c(N)cccc2C1`: 107 to 108 °C; for `O=Cc1[nH]cc2c1CN=C(c1ccccc1Cl)c1cc(Cl)ccc1-2`: 270 to 274 °C.
Consider `O=C(c1cnc2c(n1)CCCC2)C1CCCCC1`, for which the melting point was 63.5 to 64.5 °C.
The molecule `COc1ccccc(N(C)S(=O)(=O)c2ccc(C)cc2)c1=O` showed a melting point of 94.5 °C.
`Cc1cn(-c2cccc(OS(N)(=O)=O)c2)cn1` yielded a melting point of 202 to 204 °C.
The same measure for `CC(=O)Nc1ccc2c(c1)C(=O)CC2`: 176 to 180 °C.
The same measure for `CN(C)c1ccc(C=C2C(=O)NC(=S)NC2=O)cc1`: 272 °C.
`CCOC(=O)C(=O)Nc1ccc2c(=O)n3c(nc2c1)C(=Cc1cccc(OC)c1OCC)CC3` yielded a melting point of 174 to 177 °C.
`CCCOc1ccc(S(=O)(=O)N2CCN(Cc3ccccc3)CC2)cc1-c1nc2cc(N)c([N+](=O)[O-])cc2c(=O)[nH]1` displayed a melting point of 198 to 200 °C.
The same measure for `COc1ccc2c(c1OC)C[C@@H](C1CCN(CCc3ccccc3)CC1)O[C@H]2CN` (relative stereo): 100 to 102 °C; for `CCCCC(C(=O)O)c1cccc(Oc2ccccc2C)c1O` (centres undefined): 83 to 84 °C; for `CCC1(CC(=O)OC2OC(=O)c3ccccc32)OCCc2c1[nH]c1cc(OC(F)(F)F)ccc21` (centres undefined): 150 °C.
The result for `CCCCCCS(=O)(=O)c1nn2c(=O)cc(C#N)nc2s1` reads 144 to 146 °C.
As to `CCOC(=O)C1CC2=C(CO1)C(=O)C(Cl)=CC2=O` (centres undefined), the melting point came to 83.5 °C.
